Results: PMC10746543, “Design principles for cyclin K molecular glue degraders” (Nature Chemical Biology, 2023)
“And” between values parts separate entries of the source, which are not always exact repeats. Equal entries are not always repeated. Where two headings read alike, the source gives them in different places.

Key:
cyclin K = experiment: Label-free quantitative mass spectrometry in MDA-MB-231 cells, cyclin K; type: cell-based, human
Summary of the method: (§1)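 MDA-MB-231 cells treated 5 h with 1 µM cyclin K degrader or DMSO. Lysates digested with LysC and trypsin, then analysed by label-free diaPASEF LC-MS on a TimsTOF Pro2 with directDIA search and MS1 precursor quantification. Protein abundances scaled and analysed with limma.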

CDK12–cyclin K and DDB1 = molecular target: T1, CDK12–cyclin K and DDB1 (Homo sapiens, UniProt Q16531+Q9NYV4, K965R); experiment: TR-FRET ternary complex formation assay (compound titration); type: binding
T1 construct: His6–CDK12 (a.a. 713–1,052); full-length or beta-propeller B domain deletion (ΔBPB: a.a. 396–705 deleted) constructs of His6–DDB1ΔBPB, StrepII–Avi–DDB1, or His6–Spy–DDB1; made in house; host or cells: Trichoplusia ni High Five insect cells (baculovirus)
Summary of the method: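 TR-FRET ratio 520/490 nm; 70 μs delay before read to suppress background.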

CDK12 = molecular target: T2, CDK12 (Homo sapiens, UniProt Q16531+Q9NYV4); experiment: Label-free quantitative mass spectrometry in MDA-MB-231 cells, CDK12; type: cell-based
T2 construct: endogenous in cells; host or cells: MDA-MB-231
Summary of the method: as §1

CDK2–cyclin A = molecular target: T3, CDK2–cyclin A (Homo sapiens, UniProt P24941); experiment: Lanthascreen kinase binding assay, CDK2
T3 construct: purchased Thermo Fisher
Procedure: Lanthascreen experiments were performed using commercially available reagents (Thermo Fisher) and according to the manufacturer’s instructions.

[1] = label-free quantitative MS, replicate values
[2] = normalised to DMSO = 1, replicate values

T1 sequence (Q9NYV4 713-1052 K965R): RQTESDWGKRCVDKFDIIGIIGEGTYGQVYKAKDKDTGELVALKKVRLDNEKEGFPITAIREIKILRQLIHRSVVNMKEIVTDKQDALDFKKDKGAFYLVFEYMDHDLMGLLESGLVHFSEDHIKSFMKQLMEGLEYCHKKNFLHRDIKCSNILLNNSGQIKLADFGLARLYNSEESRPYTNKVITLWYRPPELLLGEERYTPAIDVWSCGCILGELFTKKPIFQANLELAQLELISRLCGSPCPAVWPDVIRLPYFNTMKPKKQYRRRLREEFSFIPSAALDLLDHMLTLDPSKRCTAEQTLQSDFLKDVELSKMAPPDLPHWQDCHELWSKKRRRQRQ
T1 sequence (O75909 1-267 partner): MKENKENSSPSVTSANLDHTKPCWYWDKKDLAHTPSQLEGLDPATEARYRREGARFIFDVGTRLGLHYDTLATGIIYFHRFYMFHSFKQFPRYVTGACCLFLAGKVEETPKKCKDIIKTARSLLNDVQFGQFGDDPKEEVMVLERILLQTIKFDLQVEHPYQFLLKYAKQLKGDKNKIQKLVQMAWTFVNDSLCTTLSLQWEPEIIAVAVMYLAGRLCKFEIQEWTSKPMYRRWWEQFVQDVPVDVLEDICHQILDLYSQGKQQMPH
T1 sequence (Q16531 whole entry): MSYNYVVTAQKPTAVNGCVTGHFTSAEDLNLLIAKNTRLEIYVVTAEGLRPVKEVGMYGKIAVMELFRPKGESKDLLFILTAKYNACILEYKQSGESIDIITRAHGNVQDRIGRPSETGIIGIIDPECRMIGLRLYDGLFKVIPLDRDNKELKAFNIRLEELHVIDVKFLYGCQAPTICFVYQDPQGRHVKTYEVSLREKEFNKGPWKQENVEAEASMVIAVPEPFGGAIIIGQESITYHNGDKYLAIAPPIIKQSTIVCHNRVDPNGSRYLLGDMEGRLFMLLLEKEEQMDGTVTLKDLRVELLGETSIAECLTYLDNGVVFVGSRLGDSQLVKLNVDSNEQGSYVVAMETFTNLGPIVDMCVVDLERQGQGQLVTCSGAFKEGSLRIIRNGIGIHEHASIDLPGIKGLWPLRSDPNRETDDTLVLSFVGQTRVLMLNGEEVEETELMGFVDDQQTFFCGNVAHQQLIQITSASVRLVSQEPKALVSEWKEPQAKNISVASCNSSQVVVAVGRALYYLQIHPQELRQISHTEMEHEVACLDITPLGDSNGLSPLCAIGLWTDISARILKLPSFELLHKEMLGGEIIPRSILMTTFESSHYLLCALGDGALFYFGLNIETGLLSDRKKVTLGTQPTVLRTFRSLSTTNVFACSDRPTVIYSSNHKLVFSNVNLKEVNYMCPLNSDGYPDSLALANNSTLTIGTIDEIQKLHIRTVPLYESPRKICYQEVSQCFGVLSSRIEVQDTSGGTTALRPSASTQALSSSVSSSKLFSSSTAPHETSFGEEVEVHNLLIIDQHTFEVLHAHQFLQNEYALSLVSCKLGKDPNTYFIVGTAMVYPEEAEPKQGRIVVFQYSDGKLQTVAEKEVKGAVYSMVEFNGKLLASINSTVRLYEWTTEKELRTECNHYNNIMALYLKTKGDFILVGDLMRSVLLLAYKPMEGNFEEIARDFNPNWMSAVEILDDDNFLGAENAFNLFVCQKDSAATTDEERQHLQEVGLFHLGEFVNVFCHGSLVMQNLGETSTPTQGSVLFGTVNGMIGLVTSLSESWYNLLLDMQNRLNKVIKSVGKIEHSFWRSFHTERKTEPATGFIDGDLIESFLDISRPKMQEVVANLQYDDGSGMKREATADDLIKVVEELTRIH
T2 sequence (Q9NYV4 whole entry): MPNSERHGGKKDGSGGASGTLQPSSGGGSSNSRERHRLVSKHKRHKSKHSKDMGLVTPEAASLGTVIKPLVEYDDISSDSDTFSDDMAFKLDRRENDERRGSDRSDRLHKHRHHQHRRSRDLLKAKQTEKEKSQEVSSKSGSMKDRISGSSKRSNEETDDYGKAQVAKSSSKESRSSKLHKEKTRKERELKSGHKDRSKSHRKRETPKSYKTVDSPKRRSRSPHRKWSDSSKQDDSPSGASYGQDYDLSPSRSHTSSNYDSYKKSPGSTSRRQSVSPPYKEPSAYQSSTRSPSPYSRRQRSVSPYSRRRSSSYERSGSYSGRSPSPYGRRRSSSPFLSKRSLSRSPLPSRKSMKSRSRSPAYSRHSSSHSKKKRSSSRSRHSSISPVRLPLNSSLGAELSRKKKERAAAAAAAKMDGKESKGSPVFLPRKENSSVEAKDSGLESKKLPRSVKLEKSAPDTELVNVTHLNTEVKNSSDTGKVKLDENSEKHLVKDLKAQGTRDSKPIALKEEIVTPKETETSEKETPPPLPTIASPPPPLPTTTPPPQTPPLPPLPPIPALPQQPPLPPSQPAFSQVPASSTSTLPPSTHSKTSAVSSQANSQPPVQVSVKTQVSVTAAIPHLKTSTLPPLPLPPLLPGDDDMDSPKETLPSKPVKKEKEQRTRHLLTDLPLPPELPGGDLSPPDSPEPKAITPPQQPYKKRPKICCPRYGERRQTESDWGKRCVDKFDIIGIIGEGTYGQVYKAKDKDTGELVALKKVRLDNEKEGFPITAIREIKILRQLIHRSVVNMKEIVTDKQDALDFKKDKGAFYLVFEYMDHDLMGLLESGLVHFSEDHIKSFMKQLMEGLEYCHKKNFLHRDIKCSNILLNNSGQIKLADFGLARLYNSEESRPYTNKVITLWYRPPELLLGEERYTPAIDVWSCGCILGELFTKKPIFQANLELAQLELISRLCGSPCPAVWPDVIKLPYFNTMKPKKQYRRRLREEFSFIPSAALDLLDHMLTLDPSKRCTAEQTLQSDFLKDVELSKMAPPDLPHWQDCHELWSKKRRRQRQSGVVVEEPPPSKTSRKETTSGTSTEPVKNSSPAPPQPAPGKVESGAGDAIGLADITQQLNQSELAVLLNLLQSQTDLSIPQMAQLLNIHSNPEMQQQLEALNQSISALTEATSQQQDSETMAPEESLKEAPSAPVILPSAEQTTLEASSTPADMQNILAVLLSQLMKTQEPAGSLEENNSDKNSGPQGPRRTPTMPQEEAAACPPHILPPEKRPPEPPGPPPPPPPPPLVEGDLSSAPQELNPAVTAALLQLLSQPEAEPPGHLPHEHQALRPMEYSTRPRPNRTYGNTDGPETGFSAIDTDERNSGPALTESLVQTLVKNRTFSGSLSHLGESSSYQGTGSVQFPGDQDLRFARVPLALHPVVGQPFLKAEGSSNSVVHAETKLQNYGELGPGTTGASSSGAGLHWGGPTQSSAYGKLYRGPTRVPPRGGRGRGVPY
T2 sequence (O75909 whole entry partner): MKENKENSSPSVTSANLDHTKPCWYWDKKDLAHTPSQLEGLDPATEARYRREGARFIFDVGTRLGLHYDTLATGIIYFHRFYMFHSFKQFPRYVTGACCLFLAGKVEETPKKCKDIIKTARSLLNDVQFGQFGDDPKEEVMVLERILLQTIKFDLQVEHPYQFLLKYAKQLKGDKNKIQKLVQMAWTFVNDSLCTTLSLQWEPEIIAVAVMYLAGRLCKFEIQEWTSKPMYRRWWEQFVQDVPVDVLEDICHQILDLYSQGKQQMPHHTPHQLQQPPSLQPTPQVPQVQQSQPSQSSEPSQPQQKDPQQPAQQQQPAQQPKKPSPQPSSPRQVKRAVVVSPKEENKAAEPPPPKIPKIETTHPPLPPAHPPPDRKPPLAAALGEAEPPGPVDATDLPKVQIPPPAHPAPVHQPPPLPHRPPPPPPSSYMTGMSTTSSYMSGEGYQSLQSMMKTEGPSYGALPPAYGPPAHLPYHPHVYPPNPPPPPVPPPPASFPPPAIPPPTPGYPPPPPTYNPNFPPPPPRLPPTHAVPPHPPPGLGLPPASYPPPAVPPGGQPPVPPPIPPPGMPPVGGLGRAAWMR
T2 sequence (Q16531 2-1140 limits assumed): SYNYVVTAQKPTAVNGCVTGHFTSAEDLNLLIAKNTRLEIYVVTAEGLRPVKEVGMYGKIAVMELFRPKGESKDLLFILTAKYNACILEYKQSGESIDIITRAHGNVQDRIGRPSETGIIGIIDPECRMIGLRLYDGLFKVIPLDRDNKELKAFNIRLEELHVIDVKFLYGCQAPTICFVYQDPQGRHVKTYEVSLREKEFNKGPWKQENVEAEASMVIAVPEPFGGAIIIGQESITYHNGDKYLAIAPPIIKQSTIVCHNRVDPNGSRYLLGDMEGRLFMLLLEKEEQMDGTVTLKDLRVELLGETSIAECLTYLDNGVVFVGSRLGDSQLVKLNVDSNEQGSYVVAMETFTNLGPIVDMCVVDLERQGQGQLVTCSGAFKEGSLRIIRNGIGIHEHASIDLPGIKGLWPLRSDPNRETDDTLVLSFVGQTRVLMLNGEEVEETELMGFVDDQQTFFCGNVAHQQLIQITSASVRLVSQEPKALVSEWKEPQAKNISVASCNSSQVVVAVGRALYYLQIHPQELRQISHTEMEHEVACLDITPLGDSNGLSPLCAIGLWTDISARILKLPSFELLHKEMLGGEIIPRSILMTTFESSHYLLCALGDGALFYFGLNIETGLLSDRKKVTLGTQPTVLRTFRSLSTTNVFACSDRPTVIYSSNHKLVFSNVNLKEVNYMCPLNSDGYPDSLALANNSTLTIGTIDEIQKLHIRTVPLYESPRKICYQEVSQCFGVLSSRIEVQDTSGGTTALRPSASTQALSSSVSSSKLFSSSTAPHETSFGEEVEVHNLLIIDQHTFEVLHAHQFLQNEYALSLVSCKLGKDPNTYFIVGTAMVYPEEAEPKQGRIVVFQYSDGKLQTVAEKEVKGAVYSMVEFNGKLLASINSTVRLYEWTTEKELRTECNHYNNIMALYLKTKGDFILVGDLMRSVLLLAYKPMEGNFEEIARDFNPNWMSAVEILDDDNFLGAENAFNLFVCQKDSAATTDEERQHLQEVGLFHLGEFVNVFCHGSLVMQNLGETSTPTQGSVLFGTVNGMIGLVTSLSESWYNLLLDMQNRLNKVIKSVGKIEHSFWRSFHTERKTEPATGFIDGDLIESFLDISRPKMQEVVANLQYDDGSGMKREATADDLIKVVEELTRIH

For CC(C)c1nn(-c2c(Cl)cccc2Cl)c2nc(Cc3ccc(OCCO)cc3)[nH]c(=O)c12 [compound 21195], the “cyclin K depletion, result in words” value (cyclin K; MDA-MB-231 cells, 1 µM, 5 h) was “more effective at depleting cyclin K than CR8”, the CCNK peptide count (cyclin K; individual replicates, sheet EDF7) was 55.265 and 55.9786 and the CCNK peptide count (cyclin K; [1]) was 55.265 and 55.9786. The “CCNK peptide count (DMSO-normalised)” value (cyclin K; [2]) was 0.03019 and 0.03114, the “average CCNK peptide count” value (cyclin K; sheet EDF7) was 55.6218 and the TR-FRET signal (CDK12–cyclin K and DDB1; compound concentration 0.468 nM) was 0.2628 and 0.2699 and 0.216 and 0.239 and 0.2342 and 0.2245. For the same compound, the TR-FRET signal (CDK12–cyclin K and DDB1; compound concentration 2.16 nM) was 0.3464 and 0.3831 and 0.355 and 0.3843 and 0.3684 and 0.3664, the TR-FRET signal (CDK12–cyclin K and DDB1; compound concentration 3.6 nM) was 0.5968 and 0.6945 and 0.6556 and 0.7072 and 0.6869 and 0.6829 and the TR-FRET signal (CDK12–cyclin K and DDB1; compound concentration 7.92001 nM) was 1.121 and 1.282 and 1.315 and 1.383 and 1.34 and 1.348. The TR-FRET signal (CDK12–cyclin K and DDB1; compound concentration 15.84 nM) was 1.693 and 2.27 and 2.427 and 2.5504 and 2.497, the TR-FRET signal (CDK12–cyclin K and DDB1; compound concentration 30.96 nM) was 2.9489 and 3.238 and 3.271 and 3.348 and 3.319 and 3.3062 and the TR-FRET signal (CDK12–cyclin K and DDB1; compound concentration 62.6401 nM) was 3.288 and 3.494 and 3.577 and 3.452 and 3.519 and 3.526. The TR-FRET signal (CDK12–cyclin K and DDB1; compound concentration 125.28 nM) was 3.346 and 3.624 and 3.589 and 3.472 and 3.591 and 3.561, the TR-FRET signal (CDK12–cyclin K and DDB1; compound concentration 244.8 nM) was 3.392 and 3.7057 and 3.68 and 3.58 and 3.638 and 3.662 and the TR-FRET signal (CDK12–cyclin K and DDB1; compound concentration 993.601 nM) was 3.425 and 3.678 and 3.687 and 3.61 and 3.695 and 3.669. For the same compound, the TR-FRET signal (CDK12–cyclin K and DDB1; compound concentration 2001.6 nM) was 3.544 and 3.666 and 3.468 and 3.558 and 3.691 and 3.74, the EC50 (CDK12–cyclin K and DDB1; in vitro complex formation, 50 nM CDK12–cyclin K, 100 nM DDB1, text and figures, read-out: TR-FRET EC50) was 12 ± 0.4 nM and the EC50 (CDK12–cyclin K and DDB1; sheet MOESM7, read-out: log TR-FRET EC50 (converted)) was 12 nM. For the same compound, the EC50 (CDK12–cyclin K and DDB1; source data sheet correlations, read-out: TR-FRET EC50) was 12 nM, the CDK12 peptide count (CDK12; [1]) was 493.905 and 565.93 and the “CDK12 peptide count (DMSO-normalised)” value (CDK12; [2]) was 0.5487 and 0.5845. For the same compound, the “Lanthascreen signal, sheet CDK2” value (CDK2–cyclin A; Compound 0.038147 nM, raw replicates, experiment r48-r58) was 0.01114 and 0.01116, the “Lanthascreen signal, sheet CDK2” value (CDK2–cyclin A; Compound 0.038147 nM, raw replicates, experiment r72-r82) was 0.02274 and 0.02249 and 0.02111 and the “Lanthascreen signal, sheet CDK2” value (CDK2–cyclin A; Compound 0.152588 nM, raw replicates, experiment r48-r58) was 0.01418 and 0.01279. For the same compound, the “Lanthascreen signal, sheet CDK2” value (CDK2–cyclin A; Compound 0.152588 nM, raw replicates, experiment r72-r82) was 0.0215 and 0.0211 and 0.01988, the “Lanthascreen signal, sheet CDK2” value (CDK2–cyclin A; Compound 0.610352 nM, raw replicates, experiment r48-r58) was 0.01088 and 0.01046 and the “Lanthascreen signal, sheet CDK2” value (CDK2–cyclin A; Compound 0.610352 nM, raw replicates, experiment r72-r82) was 0.01525 and 0.01498 and 0.01532. For the same compound, the “Lanthascreen signal, sheet CDK2” value (CDK2–cyclin A; Compound 1.02544 nM, raw replicates, experiment r1-r11) was 0.008805 and 0.007055, the “Lanthascreen signal, sheet CDK2” value (CDK2–cyclin A; Compound 3.15521 nM, raw replicates, experiment r1-r11) was 0.006794 and 0.006701 and the “Lanthascreen signal, sheet CDK2” value (CDK2–cyclin A; Compound 4.57247 nM, experiment r25-r34) was 0.009774. For the same compound, the “Lanthascreen signal, sheet CDK2” value (CDK2–cyclin A; Compound 9.46563 nM, raw replicates, experiment r1-r11) was 0.005367 and 0.004658, the “Lanthascreen signal, sheet CDK2” value (CDK2–cyclin A; Compound 9.76563 nM, raw replicates, experiment r48-r58) was 0.004922 and 0.004545 and the “Lanthascreen signal, sheet CDK2” value (CDK2–cyclin A; Compound 9.76563 nM, raw replicates, experiment r72-r82) was 0.008551 and 0.007922 and 0.008628. The “Lanthascreen signal, sheet CDK2” value (CDK2–cyclin A; Compound 13.7174 nM, experiment r25-r34) was 0.006843, the “Lanthascreen signal, sheet CDK2” value (CDK2–cyclin A; Compound 31.5521 nM, raw replicates, experiment r1-r11) was 0.003961 and 0.003619 and the “Lanthascreen signal, sheet CDK2” value (CDK2–cyclin A; Compound 39.0625 nM, raw replicates, experiment r48-r58) was 0.004317 and 0.004069. For the same compound, the “Lanthascreen signal, sheet CDK2” value (CDK2–cyclin A; Compound 39.0625 nM, raw replicates, experiment r72-r82) was 0.008233 and 0.00742 and 0.007049, the “Lanthascreen signal, sheet CDK2” value (CDK2–cyclin A; Compound 41.1523 nM, experiment r25-r34) was 0.005858 and the “Lanthascreen signal, sheet CDK2” value (CDK2–cyclin A; Compound 99.3891 nM, raw replicates, experiment r1-r11) was 0.003218 and 0.002962. For the same compound, the “Lanthascreen signal, sheet CDK2” value (CDK2–cyclin A; Compound 123.457 nM, experiment r25-r34) was 0.005407, the “Lanthascreen signal, sheet CDK2” value (CDK2–cyclin A; Compound 156.25 nM, raw replicates, experiment r48-r58) was 0.004055 and 0.004446 and the “Lanthascreen signal, sheet CDK2” value (CDK2–cyclin A; Compound 156.25 nM, raw replicates, experiment r72-r82) was 0.007121 and 0.006977 and 0.007061. For the same compound, the “Lanthascreen signal, sheet CDK2” value (CDK2–cyclin A; Compound 315.521 nM, raw replicates, experiment r1-r11) was 0.003513 and 0.004201, the “Lanthascreen signal, sheet CDK2” value (CDK2–cyclin A; Compound 370.37 nM, experiment r25-r34) was 0.005303 and the “Lanthascreen signal, sheet CDK2” value (CDK2–cyclin A; Compound 625 nM, raw replicates, experiment r48-r58) was 0.004058 and 0.004497. For the same compound, the “Lanthascreen signal, sheet CDK2” value (CDK2–cyclin A; Compound 625 nM, raw replicates, experiment r72-r82) was 0.007299 and 0.007212 and 0.007465, the “Lanthascreen signal, sheet CDK2” value (CDK2–cyclin A; Compound 2500 nM, raw replicates, experiment r48-r58) was 0.004147 and 0.004489 and the “Lanthascreen signal, sheet CDK2” value (CDK2–cyclin A; Compound 2500 nM, raw replicates, experiment r72-r82) was 0.007107 and 0.006983 and 0.006617. For the same compound, the “Lanthascreen signal, sheet CDK2” value (CDK2–cyclin A; Compound 3155.21 nM, raw replicates, experiment r1-r11) was 0.004846 and 0.003852, the “Lanthascreen signal, sheet CDK2” value (CDK2–cyclin A; Compound 3333.33 nM, experiment r25-r34) was 0.004706 and the “Lanthascreen signal, sheet CDK2” value (CDK2–cyclin A; Compound 10000 nM, experiment r25-r34) was 0.005121. The “Lanthascreen signal, sheet CDK2” value (CDK2–cyclin A; Compound 10000 nM, raw replicates, experiment r48-r58) was 0.003844 and 0.004325, the “Lanthascreen signal, sheet CDK2” value (CDK2–cyclin A; Compound 10000 nM, raw replicates, experiment r72-r82) was 0.007331 and 0.007604 and 0.008348 and the “Lanthascreen signal, sheet CDK2” value (CDK2–cyclin A; Compound 10002 nM, raw replicates, experiment r1-r11) was 0.002963 and 0.004615. For the same compound, the IC50 (CDK2–cyclin A; Supplementary Table 2, read-out: Lanthascreen IC50 [nM] CDK2) was 3 nM.
